According to patent publication US7939286B2, “Enhancing a luminescent signal” (Targeting Systems, priority 2005, dated 2011):
Values joined by “and” are separate entries in the source; they are usually repeats but may differ in a detail not shown here. Equal entries are not always repeated.

Legend:
Firefly luciferase = Firefly luciferase (Photinus pyralis, UniProt P08659); assay: Summary of effect on bioluminescent signal of firefly luciferase; assay type: biochemical
[1] = tested on: Gaussia luciferase secreted from mammalian cells; assay: Bioluminescence of mammalian-secreted Gaussia luciferase in assay buffer (luminometer);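 on all read-outs here: mammalian cell culture supernatants containing secreted Gaussia luciferase were combined with coelenterazine assay buffer and light emission was read on a luminometer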; details: for effect on magnitude (M at t = 1-2 minutes) of bioluminescent signal, Mammalian Gluc / effect on stability (S at time = 7-10 minutes) of bioluminescent signal, Mammalian Gluc: comparison: 1% EDTA to 0%, 0.2% NP40 to 0.025% or 0%, 4 μM coel. to 1.3 μM, 4 μM benzyl coel. to 1.3 μM; for bioluminescence T = 0 / bioluminescence T = 15 / bioluminescence T = 45: 0.2% detergent final concentration in 0.5×PBS; for bioluminescence T = 0 / bioluminescence T = 15 / bioluminescence T = 45 / stability of the luminescent signal in the presence of different detergents: 1.3 μM coelenterazine; for bioluminescence T = 0: T = 0 minutes; for bioluminescence T = 15: T = 15 minutes; for bioluminescence T = 45: T = 45 minutes; for Gaussia luciferase (mammalian) bioluminescence t = 0 / Gaussia luciferase (mammalian) bioluminescence t = 10: 1.3 μM substrate in 0.5xPBS; for Gaussia luciferase (mammalian) bioluminescence t = 0: t = 0 minutes; for Gaussia luciferase (mammalian) bioluminescence t = 10: t = 10 minutes; for RLU: zero time; for effect on magnitude (M) of bioluminescent signal, Mammalian Gluc: NaCl conc. 0.075M compared to 0.5M; for stability of the luminescent signal in the presence of different detergents: 0.2% and 0.02% detergent, no EDTA, read again after 15 minutes
From the text: Reagents used in the examples include: PBS (Amresco, Solon, Ohio), PBS with Ca/Mg/K (Invitrogen, Carlsbad, Calif.), Igepal CA-630 referred to throughout as NP40 (Sigma Aldrich, St. Louis, Mo.), Standard Renilla assay reagent (Promega, Madison, Wis.), coelenterazine and benzyl coelenterazzine (Prolume/NanoLight Technologies, Pinetop, Ariz.), expression vector for Gaussia luciferase in mammals (New England Biolabs, Inc., Ipswich, Mass.), Dulbecco's minimal essential medium (DMEM) (Invitrogen, Carlsbad, Calif.) used for diluting mammalian and bacterial expressed Gaussia luciferase. Measurements of bioluminescence were carried out with a luminometer (Turner TD2020 luminometer, Turner BioSystems, Sunnyvale, Calif.).
An amount of this coelenterazine solution was added to the assay buffer to a final concentration in the range of I-10 μM. 50 μl of the assay buffer was mixed with 20 μl of sample containing luciferase and bioluminescence was measured using a luminometer.
In this example, 20 μl of mammalian Gaussia luciferase samples (cell supernatants) were mixed with 8 μl of the indicated detergents at 2% and 0.2% concentration (final concentration of detergents in assay solution was 0.2% and 0.02%) and 50 μl of the Gaussia luciferase assay reagent (0.5×PBS, no EDTA, 1.3 μM coelenterazine) and read in a Turner TD2020 Luminometer, Turner BioSystems, Sunnyvale, Calif. The samples were read again after 15 minutes to evaluate the stability of the luminescent signal in the presence of different detergents.

Renilla luciferase = molecular target: T1, Renilla luciferase (Renilla reniformis, UniProt P27652); assay: Bioluminescence of Renilla luciferase in assay buffer (luminometer); assay type: biochemical; details: for effect on magnitude (M at t = 1-2 minutes) of bioluminescent signal, Bacterial Rluc / effect on stability (S at time = 7-10 minutes) of bioluminescent signal, Bacterial Rluc: comparison: 1% EDTA to 0%, 0.2% NP40 to 0.025% or 0%, 4 μM coel. to 1.3 μM, 4 μM benzyl coel. to 1.3 μM; for effect of 0.2% detergent on Renilla luciferase activity (FIG. 7): 0.2% v/v detergent, T=0 and T=18 minutes; for Renilla luciferase bioluminescence t = 0 / Renilla luciferase bioluminescence t = 20: 1.3 μM substrate in 0.5xPBS, 0.025% NP40; for Renilla luciferase bioluminescence t = 0: t = 0 minutes; for Renilla luciferase bioluminescence t = 20: t = 20 minutes; for stability of the luminescent signal in the presence of different detergents: 0.2% and 0.02% detergent
T1 construct: purchased Prolume/NanoLight Technologies, Pinetop, Ariz
T1 sequence (P27652 1-311): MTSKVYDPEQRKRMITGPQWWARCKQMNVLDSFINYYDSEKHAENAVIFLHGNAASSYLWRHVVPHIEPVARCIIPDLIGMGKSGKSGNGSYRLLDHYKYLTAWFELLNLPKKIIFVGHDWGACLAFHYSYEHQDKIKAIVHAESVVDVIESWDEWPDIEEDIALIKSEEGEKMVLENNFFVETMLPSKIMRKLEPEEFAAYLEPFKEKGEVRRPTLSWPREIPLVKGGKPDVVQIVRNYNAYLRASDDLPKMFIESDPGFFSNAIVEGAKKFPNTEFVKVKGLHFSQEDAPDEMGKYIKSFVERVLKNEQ
From the text: Renilla luciferase is commercially available from Prolume/NanoLight Technologies, Pinetop, Ariz. Recombinant bacterial Gaussia luciferase was obtained from Prolume/Nanolight Technologies, Pinetop, Ariz.

[2] = tested on: purified recombinant bacterial Gaussia luciferase; assay: Bioluminescence of recombinant bacterial Gaussia luciferase in assay buffer (luminometer); assay type: biochemical, Gaussia princeps; details: for effect on magnitude (M at t = 1-2 minutes) of bioluminescent signal, bacterial Gluc / effect on stability (S at time = 7-10 minutes) of bioluminescent signal, bacterial Gluc: comparison: 1% EDTA to 0%, 0.2% NP40 to 0.025% or 0%, 4 μM coel. to 1.3 μM, 4 μM benzyl coel. to 1.3 μM; for Gaussia luciferase (bacterial) bioluminescence t = 0 / Gaussia luciferase (bacterial) bioluminescence t = 10: 1.3 μM substrate in 0.5xPBS; for Gaussia luciferase (bacterial) bioluminescence t = 0: t = 0 minutes; for Gaussia luciferase (bacterial) bioluminescence t = 10: t = 10 minutes
Description: Renilla luciferase is commercially available from Prolume/NanoLight Technologies, Pinetop, Ariz. Recombinant bacterial Gaussia luciferase was obtained from Prolume/Nanolight Technologies, Pinetop, Ariz. […] An amount of powdered bacterial Gaussia luciferase obtained from Nanolight Technologies, Pinetop, Ariz., was dissolved in DMEM and diluted in control assay buffer until a reading could be obtained from a luminometer.

[3] = 1.3 μM substrate, 0.5×PBS, 1% EDTA, 0.025% NP40, compared with 1.3 μM coelenterazine

Firefly luciferase, sequence (P08659 whole entry): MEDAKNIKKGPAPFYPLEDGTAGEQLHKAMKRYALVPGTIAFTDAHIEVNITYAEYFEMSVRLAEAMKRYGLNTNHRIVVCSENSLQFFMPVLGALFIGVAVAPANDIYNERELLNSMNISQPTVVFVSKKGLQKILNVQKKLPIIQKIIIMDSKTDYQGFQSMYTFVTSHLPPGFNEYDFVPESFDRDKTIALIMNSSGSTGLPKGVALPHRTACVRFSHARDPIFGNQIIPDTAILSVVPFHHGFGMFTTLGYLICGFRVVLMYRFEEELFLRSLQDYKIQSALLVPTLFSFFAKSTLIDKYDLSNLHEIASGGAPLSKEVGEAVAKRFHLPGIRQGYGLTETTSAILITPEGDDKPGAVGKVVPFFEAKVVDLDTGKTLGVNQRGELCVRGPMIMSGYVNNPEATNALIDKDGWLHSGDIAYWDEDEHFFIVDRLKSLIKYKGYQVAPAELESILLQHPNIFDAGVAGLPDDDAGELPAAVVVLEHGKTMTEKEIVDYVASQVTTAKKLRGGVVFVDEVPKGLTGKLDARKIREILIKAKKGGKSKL

Compound	effect on magnitude (M at t = 1-2 minutes) of bioluminescent signal, Mammalian Gluc [1]	effect on stability (S at time = 7-10 minutes) of bioluminescent signal, Mammalian Gluc [1]	effect on magnitude (M at t = 1-2 minutes) of bioluminescent signal, Bacterial Rluc (Renilla luciferase)	effect on stability (S at time = 7-10 minutes) of bioluminescent signal, Bacterial Rluc (Renilla luciferase)	effect on magnitude (M at t = 1-2 minutes) of bioluminescent signal, bacterial Gluc [2]	bioluminescence T = 0 ([1]; 1% EDTA)	bioluminescence T = 15 ([1]; 1% EDTA)	bioluminescence T = 45 ([1]; 1% EDTA)	effect of 0.2% detergent on Renilla luciferase activity (FIG. 7) (Renilla luciferase)	further results
O=C(O)CN(CCN(CC(=O)O)CC(=O)O)CC(=O)O [EDTA]	M down	S up	M down	S down	M down	–	–	–	–	effect on magnitude (M at t = 1-2 minutes) of bioluminescent signal, Firefly (Firefly luciferase; 1% EDTA compared to 0%): M down
CCCCCCCCCCCCOS(=O)(=O)[O-].[Na+] [SDS, sodium dodecyl sulfate]	–	–	–	–	–	0 RLU	0 RLU	0 RLU	–	–
CCCCCCCC/C=C\CCCCCCCC(=O)OCCOCC(OCCO)C1OCC(OCCO)C1OCCO (stereo not shown) [Tween80]	–	–	–	–	–	128 RLU	101 RLU	58 RLU	stabilizing effect	–
benzyl coelenterazine [Benzyl Coel.]	M down	S down	M up	S up	M down	–	–	–	–	Gaussia luciferase (mammalian) bioluminescence t = 0 ([1]; 0.025% NP40): 34 and 30 and 31; Gaussia luciferase (mammalian) bioluminescence t = 10 ([1]; 0.025% NP40): 3.49 and 3.6 and 3.66; suitability as substrate (FIG. 8) [1, 3]: poor substrate; Renilla luciferase bioluminescence t = 0 (Renilla luciferase): 9036 and 7687 and 7955; Renilla luciferase bioluminescence t = 20 (Renilla luciferase): 2234 and 1944 and 1359; suitability as substrate (FIG. 9) (Renilla luciferase; 1.3 μM substrate, 0.5×PBS, 0.025% NP40, 1% EDTA, compared with 1.3 μM coelenterazine): good substrate; Gaussia luciferase (bacterial) bioluminescence t = 0 ([2]; 0.025% NP40): 81.75 and 83 and 84; Gaussia luciferase (bacterial) bioluminescence t = 10 ([2]; 0.025% NP40): 7.9 and 8.1; suitability as substrate (FIG. 8) [2, 3]: poor substrate; effect on stability (S at time = 7-10 minutes) of bioluminescent signal, bacterial Gluc [2]: S down
[Cl-].[Na+] [NaCl, sodium chloride]	–	–	–	–	–	–	–	–	–	RLU ([1]; 0.175M NaCl in adjusted 0.5 × PBS + 1% EDTA + 0.025% NP40 + 1.3 μM coel.): 1322 RLU and 1350 RLU and 1242 RLU; RLU ([1]; 0.275M NaCl in adjusted 0.5 × PBS + 1% EDTA + 0.025% NP40 + 1.3 μM coel.): 1364 RLU and 1252 RLU and 1204 RLU; RLU ([1]; 0.375M NaCl in adjusted 0.5 × PBS + 1% EDTA + 0.025% NP40 + 1.3 μM coel.): 1129 RLU and 1098 RLU and 1246 RLU; RLU ([1]; 0.5M NaCl in adjusted 0.5 × PBS + 1.3 μM coel.): 1212 RLU and 701 RLU; RLU ([1]; 0.575M NaCl in adjusted 0.5 × PBS + 1% EDTA + 0.025% NP40 + 1.3 μM coel.): 1049 RLU and 1035 RLU and 1149 RLU; RLU ([1]; 1M NaCl in adjusted 0.5 × PBS + 1.3 μM coel.): 760 RLU and 750 RLU; effect on magnitude (M) of bioluminescent signal, Mammalian Gluc ([1]; + EDTA): M same + EDTA; effect on magnitude (M) of bioluminescent signal, Mammalian Gluc ([1]; −EDTA-NP40): M down
NP40	M down	S up	M down	S up	M down	87 RLU	112 RLU	79 RLU	stabilizing effect	effect on stability (S at time = 7-10 minutes) of bioluminescent signal, Firefly (Firefly luciferase; 0.2% NP40 compared to 0.025% or 0%): S up; stability of the luminescent signal in the presence of different detergents ([1]; 0.5×PBS): optimum stability; stability of the luminescent signal in the presence of different detergents (Renilla luciferase): optimum stability; effect on stability (S at time = 7-10 minutes) of bioluminescent signal, bacterial Gluc [2]: S up
deoxycholate [DOC]	–	–	–	–	–	4 RLU	2 RLU	2 RLU	–	–
Oc1ccc(Cc2nc3c(Cc4ccccc4)nc(-c4ccc(O)cc4)cn3c2O)cc1 [Coel., coelenterazine]	M up	–	M up	S down	M up	–	–	–	–	Gaussia luciferase (mammalian) bioluminescence t = 0 ([1]; 0.025% NP40): 594 and 565 and 556; Gaussia luciferase (mammalian) bioluminescence t = 10 ([1]; 0.025% NP40): 31 and 30 and 29; effect of coelenterazine concentrations greater than 4 μM on luciferase activity (FIG. 4A) ([1]; 1.3-25 μM coelenterazine in 0.5×PBS, 1% EDTA, 0.025% NP40, zero time): no significant increase in luciferase activity; Renilla luciferase bioluminescence t = 0 (Renilla luciferase): 2296 and 1790 and 2520; Renilla luciferase bioluminescence t = 20 (Renilla luciferase): 194 and 139 and 211; Gaussia luciferase (bacterial) bioluminescence t = 0 ([2]; 0.025% NP40): 1630 and 1837 and 1903; Gaussia luciferase (bacterial) bioluminescence t = 10 ([2]; 0.025% NP40): 58 and 59 and 60; effect of coelenterazine concentrations greater than 4 μM on luciferase activity (FIG. 4B) ([2]; 1.3-25 μM coelenterazine): no significant increases in luciferase activity
Triton X-100	–	–	–	–	–	59 RLU	80 RLU	63 RLU	stabilizing effect	stability of the luminescent signal in the presence of different detergents ([1]; 0.5×PBS): optimum stability; stability of the luminescent signal in the presence of different detergents (Renilla luciferase): optimum stability
